Legend:
[1] = system: MOLT-4; assay: NCI-60 single dose screen, sulforhodamine B; type: cell-based, human; settings: Leukaemia MOLT-4; single dose 10^−5 M
Experimental: (§1) In this research, all of the newly synthesised quinazolinones were subjected to in vitro anticancer screening by the National Cancer Institute (USA) against 60 different human cell lines including leukaemia, non-small cell lung cancer, colon cancer, CNS cancer, melanoma, ovarian cancer, renal cancer, prostate cancer, and breast cancer. The tested compounds were evaluated at a single dose (10^−5 M). […] Regarding the benzenesulfonamide counterparts, the introduction of an electron-withdrawing group on the benzenesulfonamide moiety increased the inhibitory activity on the glioblastoma cell line SNB-75 as depicted by the chloro derivative 5c (GI% = 63.09) which was higher than that of the unsubstituted derivative 5a (GI% = 40.06) and the methyl derivative 5b (GI% = 33.03).
(§2) 1. Cytotoxicity screening against a panel of 60 human tumor cell lines
(§3) All the compounds were selected for NCI-60 Human Tumor Cell Lines Screen by the Developmental Therapeutics Program (DTP) at the National Cancer Institute (NCI), Maryland, USA. The operation of this screen utilizes 60 different human tumor cell lines, representing leukemia, non-small-cell lung cancer, colon cancer, CNS cancer, melanoma, ovarian cancer, renal cancer, prostate cancer and breas t cancer.
(§4) The compounds were supplied as dry powder and a single concentration is tested in all 60 cell lines at a single dose of 10 µM solution in dimethyl sulfoxide (DMSO) using Sulforhodamine B assay. Briefly, cells are seeded in 96 well plates at an appropriate density and incubated for 1 day. After 1 day, some of the plates are processed to determine the density time zero. To the remaining plates, compounds are added at 10 µM concentration. Plates are incubated a further 2 days, then fixed and staine d with sulphorhodamine B. Growth inhibition is calculated relative to cells without drug treatment and the time zero control. The use of a time zero control allows the determination of cell kill as well as net growth inhibition. […]

[2] = system: SK-MEL-2; assay: NCI-60 single dose screen, sulforhodamine B; type: cell-based, human; settings: Melanoma SK-MEL-2; single dose 10^−5 M
Experimental: as §1, §2, §3, §4

[3] = system: RPMI-8226; assay: NCI-60 single dose screen, sulforhodamine B; type: cell-based, human; settings: Leukaemia RPMI-8226; single dose 10^−5 M
Experimental: as §1, §2, §3, §4

[4] = system: K-562; assay: NCI-60 single dose screen, sulforhodamine B; type: cell-based, human; settings: Leukaemia K-562; single dose 10^−5 M
Experimental: as §1, §2, §3, §4

[5] = system: HCC-2998; assay: NCI-60 single dose screen, sulforhodamine B; type: cell-based, human; settings: Colon cancer HCC-2998; single dose 10^−5 M
Experimental: as §1, §2, §3, §4

[6] = system: NCI-H322M; assay: NCI-60 single dose screen, sulforhodamine B; type: cell-based, human; settings: Non-small cell lung cancer NCI-H322M; single dose 10^−5 M
Experimental: as §1, §2, §3, §4

[7] = system: COLO 205; assay: NCI-60 single dose screen, sulforhodamine B; type: cell-based, human; settings: Colon cancer COLO 205; single dose 10^−5 M
Experimental: as §1, §2, §3, §4

[8] = system: ACHN; assay: NCI-60 single dose screen, sulforhodamine B; type: cell-based, human; settings: Renal cancer ACHN; single dose 10^−5 M
Experimental: as §1, §2, §3, §4

[9] = system: OVCAR-8; assay: NCI-60 single dose screen, sulforhodamine B; type: cell-based, human; settings: Ovarian cancer OVCAR-8; single dose 10^−5 M
Experimental: as §1, §2, §3, §4

[10] = system: HS 578T; assay: NCI-60 single dose screen, sulforhodamine B; type: cell-based, human; settings: Breast cancer HS 578T; single dose 10^−5 M
Experimental: as §1, §2, §3, §4

[11] = system: CCRF-CEM; assay: NCI-60 single dose screen, sulforhodamine B; type: cell-based, human; settings: Leukaemia CCRF-CEM; single dose 10^−5 M
Experimental: as §1, §2, §3, §4

[12] = system: HT29; assay: NCI-60 single dose screen, sulforhodamine B; type: cell-based, human; settings: Colon cancer HT29; single dose 10^−5 M
Experimental: as §1, §2, §3, §4

[13] = system: LOX IMVI; assay: NCI-60 single dose screen, sulforhodamine B; type: cell-based, human; settings: Melanoma LOX IMVI; single dose 10^−5 M
Experimental: as §1, §2, §3, §4

[14] = system: OVCAR-3; assay: NCI-60 single dose screen, sulforhodamine B; type: cell-based, human; settings: Ovarian cancer OVCAR-3; single dose 10^−5 M
Experimental: as §1, §2, §3, §4

[15] = system: UO-31; assay: NCI-60 single dose screen, sulforhodamine B; type: cell-based, human; settings: Renal cancer UO-31; single dose 10^−5 M
Experimental: as §1, §2, §3, §4

[16] = system: HOP-62; assay: NCI-60 single dose screen, sulforhodamine B; type: cell-based, human; settings: Non-small cell lung cancer HOP-62; single dose 10^−5 M
Experimental: as §1, §2, §3, §4

[17] = system: SN12C; assay: NCI-60 single dose screen, sulforhodamine B; type: cell-based, human; settings: Renal cancer SN12C; single dose 10^−5 M
Experimental: as §1, §2, §3, §4

[18] = system: 786-0; assay: NCI-60 single dose screen, sulforhodamine B; type: cell-based, human; settings: Renal cancer 786-0; single dose 10^−5 M
Experimental: as §1, §2, §3, §4

[19] = system: M14; assay: NCI-60 single dose screen, sulforhodamine B; type: cell-based, human; settings: Melanoma M14; single dose 10^−5 M
Experimental: as §1, §2, §3, §4

[20] = system: MDA-MB-435; assay: NCI-60 single dose screen, sulforhodamine B; type: cell-based, human; settings: Melanoma MDA-MB-435; single dose 10^−5 M
Experimental: as §1, §2, §3, §4

[21] = system: NCI/ADR-RES; assay: NCI-60 single dose screen, sulforhodamine B; type: cell-based, human; settings: Ovarian cancer NCI/ADR-RES; single dose 10^−5 M
Experimental: as §1, §2, §3, §4

[22] = system: SW-620; assay: NCI-60 single dose screen, sulforhodamine B; type: cell-based, human; settings: Colon cancer SW-620; single dose 10^−5 M
Experimental: as §1, §2, §3, §4

[23] = system: SNB-19; assay: NCI-60 single dose screen, sulforhodamine B; type: cell-based, human; settings: CNS cancer SNB-19; single dose 10^−5 M
Experimental: as §1, §2, §3, §4

[24] = system: KM12; assay: NCI-60 single dose screen, sulforhodamine B; type: cell-based, human; settings: Colon cancer KM12; single dose 10^−5 M
Experimental: as §1, §2, §3, §4

[25] = system: NCI-H226; assay: NCI-60 single dose screen, sulforhodamine B; type: cell-based, human; settings: Non-small cell lung cancer NCI-H226; single dose 10^−5 M
Experimental: as §1, §2, §3, §4

[26] = system: EKVX; assay: NCI-60 single dose screen, sulforhodamine B; type: cell-based, human; settings: Non-small cell lung cancer EKVX; single dose 10^−5 M
Experimental: as §1, §2, §3, §4

[27] = system: DU-145; assay: NCI-60 single dose screen, sulforhodamine B; type: cell-based, human; settings: Prostate cancer DU-145; single dose 10^−5 M
Experimental: as §1, §2, §3, §4

[28] = system: U251; assay: NCI-60 single dose screen, sulforhodamine B; type: cell-based, human; settings: CNS cancer U251; single dose 10^−5 M
Experimental: as §1, §2, §3, §4

[29] = system: RXF 393; assay: NCI-60 single dose screen, sulforhodamine B; type: cell-based, human; settings: Renal cancer RXF 393; single dose 10^−5 M
Experimental: as §1, §2, §3, §4

[30] = system: NCI-H23; assay: NCI-60 single dose screen, sulforhodamine B; type: cell-based, human; settings: Non-small cell lung cancer NCI-H23; single dose 10^−5 M
Experimental: as §1, §2, §3, §4

[31] = system: NCI-H460; assay: NCI-60 single dose screen, sulforhodamine B; type: cell-based, human; settings: Non-small cell lung cancer NCI-H460; single dose 10^−5 M
Experimental: as §1, §2, §3, §4

Row | Structure (SMILES) | GI% at 10^−5 M [1] | GI% at 10^−5 M [2] | GI% at 10^−5 M [3] | GI% at 10^−5 M [4] | GI% at 10^−5 M [5] | GI% at 10^−5 M [6] | GI% at 10^−5 M [7] | GI% at 10^−5 M [8] | GI% at 10^−5 M [9] | GI% at 10^−5 M [10] | GI% at 10^−5 M [11] | GI% at 10^−5 M [12] | GI% at 10^−5 M [13] | GI% at 10^−5 M [14] | GI% at 10^−5 M [16] | GI% at 10^−5 M [17] | GI% at 10^−5 M [18] | GI% at 10^−5 M [19] | GI% at 10^−5 M [20] | GI% at 10^−5 M [21] | further results
1 | COc1cc(C=Nn2c(COc3ccccc3)nc3ccccc3c2=O)ccc1O [Compound 6a, 3-((4-hydroxy-3-methoxybenzylidene)amino)-2-(phenoxymethyl)quinazolin-4(3H)-one] | – (– means GI < 10%) | – (– means GI < 10%) | – (– means GI < 10%) | – (– means GI < 10%) | – (– means GI < 10%) | – (– means GI < 10%) | – (– means GI < 10%) | – (– means GI < 10%) | – (– means GI < 10%) | – (– means GI < 10%) | – (– means GI < 10%) | – (– means GI < 10%) | – (– means GI < 10%) | – (– means GI < 10%) | – (– means GI < 10%) | 10.37% | – (– means GI < 10%) | – (– means GI < 10%) | – (– means GI < 10%) | – (– means GI < 10%) | GI% at 10^−5 M [15]: 15.75%; GI% at 10^−5 M [22]: – (– means GI < 10%); GI% at 10^−5 M [23]: – (– means GI < 10%); GI% at 10^−5 M [24]: – (– means GI < 10%); GI% at 10^−5 M [25]: – (– means GI < 10%); GI% at 10^−5 M [26]: – (– means GI < 10%); GI% at 10^−5 M [27]: – (– means GI < 10%); GI% at 10^−5 M [28]: – (– means GI < 10%); GI% at 10^−5 M [29]: – (– means GI < 10%); GI% at 10^−5 M [30]: – (– means GI < 10%); GI% at 10^−5 M [31]: – (– means GI < 10%); melting point: 191 to 193 °C
2 | Cc1ccc(S(=O)(=O)Nn2c(COc3ccccc3)nc3ccccc3c2=O)cc1 [Compound 5b, 4-methyl-N-(4-oxo-2-(phenoxymethyl)quinazolin-3(4H)-yl)benzenesulfonamide] | – (– means GI < 10%) | – (– means GI < 10%) | – (– means GI < 10%) | – (– means GI < 10%) | – (– means GI < 10%) | – (– means GI < 10%) | – (– means GI < 10%) | 15% | – (– means GI < 10%) | – (– means GI < 10%) | – (– means GI < 10%) | – (– means GI < 10%) | – (– means GI < 10%) | – (– means GI < 10%) | 11.16% | – (– means GI < 10%) | – (– means GI < 10%) | – (– means GI < 10%) | – (– means GI < 10%) | – (– means GI < 10%) | GI% at 10^−5 M [15]: 10.74%; GI% at 10^−5 M [22]: – (– means GI < 10%); GI% at 10^−5 M [23]: – (– means GI < 10%); GI% at 10^−5 M [24]: – (– means GI < 10%); GI% at 10^−5 M [25]: – (– means GI < 10%); GI% at 10^−5 M [26]: 13.18%; GI% at 10^−5 M [27]: 15.73%; GI% at 10^−5 M [28]: – (– means GI < 10%); GI% at 10^−5 M [29]: 10.27%; GI% at 10^−5 M [30]: 11.47%; GI% at 10^−5 M [31]: – (– means GI < 10%); melting point: 140 to 142 °C
3 | O=C(CNn1c(COc2ccccc2)nc2ccccc2c1=O)Nc1ccc(Cl)cc1 [Compound 4c, N-(4-chlorophenyl)-2-((4-oxo-2-(phenoxymethyl)quinazolin-3(4H)-yl)amino)acetamide] | 15.9% | – (– means GI < 10%) | – (– means GI < 10%) | 10.43% | – (– means GI < 10%) | – (– means GI < 10%) | – (– means GI < 10%) | – (– means GI < 10%) | – (– means GI < 10%) | 19.01% | – (– means GI < 10%) | – (– means GI < 10%) | – (– means GI < 10%) | – (– means GI < 10%) | 12.12% | 19.15% | – (– means GI < 10%) | – (– means GI < 10%) | – (– means GI < 10%) | 10.99% | GI% at 10^−5 M [22]: – (– means GI < 10%); GI% at 10^−5 M [23]: – (– means GI < 10%); GI% at 10^−5 M [24]: – (– means GI < 10%); GI% at 10^−5 M [25]: 11.13%; GI% at 10^−5 M [26]: 19.01%; GI% at 10^−5 M [27]: – (– means GI < 10%); GI% at 10^−5 M [28]: – (– means GI < 10%); GI% at 10^−5 M [29]: – (– means GI < 10%); GI% at 10^−5 M [30]: – (– means GI < 10%); GI% at 10^−5 M [31]: – (– means GI < 10%); melting point: 165 to 167 °C

From publication PMC8843100, “Development of newly synthesised quinazolinone-based CDK2 inhibitors with potent efficacy against melanoma” (Journal of Enzyme Inhibition and Medicinal Chemistry, 2022)
